Reference: patent publication US9593305B2, “Differentiation of pluripotent stem cells” (Janssen Biotech, Inc., priority 2008, dated 2017)

Experiments:
scid-beige mice = test: Transplantation of differentiated cells under the kidney capsule, human C-peptide ELISA (Example 18); type: in vivo, mouse; conditions: 8-weeks post-transplant; cells treated in step 1 as named (compounds with GDF-8)
Procedure: Five to six-week-old male scid-beige mice (C.B-Igh-1 b1 GbmsTac-Prkdc^scid-Lyst^bgN7) were purchased from Taconic Farms. Mice were housed in microisolator cages with free access to sterilized food and water. In preparation for surgery, mice were identified by ear tagging, their body weight was measured, and their blood glucose was determined using a hand held glucometer (LifeScan; One Touch). On the day of surgery, mice were anesthetized with a mixture of isolflurane and oxygen, and the surgical site was shaved with small animal clippers. Mice were dosed with 0.1 mg·kg Buprenex subcutaneously pre-operatively. The surgical site was prepared with successive washes of 70% isopropyl alcohol, 10% povidone-iodide, and 70% isopropyl alcohol, and a left lateral incision was made through the skin and muscle layers. […]
Following transplantation, mice were weighed once per week and blood glucose was measured twice per week. […] Human C-peptide levels were determined using the Mercodia/ALPCO Diagnotics Ultrasensitive C-peptide ELISA according to the manufacturer's instructions.
ELISA results for human C-peptide are shown in FIG. 23 for mice transplanted with cells from each of the respective treatment groups. No circulating human C-peptide was detected at four weeks post-transplant for any mice receiving cells from any of the treatment groups.

[1] = test system: H1 human embryonic stem cells; test: Step-wise differentiation, high content analysis of SOX17, PDX1, CDX2, insulin, glucagon (Example 12); type: cell-based
Procedure: The assay was initiated by aspirating the culture medium from each well and adding back an aliquot (0.5 ml) of test medium. Test conditions for the first step of differentiation were conducted over a three-day period, feeding daily by aspirating and replacing the medium from each well with fresh test medium. On the first day of assay, 100 ng/ml activin A (PeproTech; Cat #120-14) or 200 ng/ml GDF-8 (R&D Systems, Cat #788-G8) was added to respective assay wells where each growth factor was diluted into RPMI-1640 medium (Invitrogen; Cat #22400) with 1% Albumin Bovine Fraction V, Fatty Acid Free (FAF BSA) (MP Biomedicals, Inc; Cat 152401), 1% Probumin (Millipore; Cat #81-068-3) and 20 ng/ml Wnt3a (R&D Systems; Cat #1324-WN/CF). On the second day of assay, 100 ng/ml activin A or 200 ng/ml GDF-8 was diluted into RPMI-1640 medium supplemented with 2% FAF BSA without Wnt3a. In some test samples using GDF-8, Wnt3a was replaced with a either Compound 34 or Compound 56 at a concentration of 2.5 μM, and either Compound 34 or Compound 56 was added daily during all three days of definitive endoderm differentiation. At the conclusion of the first step of differentiation, cells from some wells were harvested for flow cytometry analysis to evaluate levels of CXCR4, a marker of definitive endoderm formation. […]

C=CCN1CC(=O)NCCCc2cncc(c2)-c2ncnc(n2)Nc2cccc(c2)C1 [Compound 40, 14-Prop-2-en-1-yl-3,5,7,14,17,23,27-heptaazatetracyclo[19.3.1.1˜2.6˜0.1˜8,12˜]heptacosa-1(25), 2(27), 3,5,8(26), 9,11,21,23-nonaen-16-one]
mice with detectable C-peptide (scid-beige mice): one of three mice

GDF-8: growth factor GDF-8, also known as myostatin, member of the TGF-β family
normalized protein levels of insulin and glucagon after step 5 ([1]; GDF-8 versus activin A treatment groups in step 1): equivalent expression between the Activin A and GDF-8 treatment groups
normalized Pdx1 and Cdx2 protein expression after step 3 ([1]; GDF-8 with Wnt3a or with a compound in step 1): equivalent levels of PDX1 and CDX2
